Literature values as cited in patent publication US20200030399A1, “HERBAL COMPOSITIONS OF CALIFORNIA POPPY AND METHOD FOR THE TREATMENT OF SLEEP AND DREAM-RELATED DISORDERS” (MONDIAS NATURELS INC., priority 2017, published 2020).

How the values were obtained:
acetic acid writhing = conditions: mice; doses not given; dose-response for the extract
[1] = tested on: reserpine-induced ptosis, akinesia or hypothermia; conditions: mice
[2] = tested on: anticholinergic effects of Oxotremorine; conditions: mice
[3] = tested on: dexamphetamine produced mortality; conditions: mice
[4] = tested on: stereotyped behaviour effects of dexamphetamine; conditions: mice
pentetylenetetrazole = conditions: mice
myorelaxant effects = conditions: mice

CC(=O)Nc1ccc(O)cc1 [paracetamol]
Protection against writing (acetic acid writhing) (acetic acid writhing): 60%

CN(C)CCC=C1c2ccccc2CCc2ccccc21 [amitryptiline]
effect against reserpine-induced ptosis, akinesia or hypothermia [1]: significantly reduced ptosis and hypothermia

CN(C)CCCN1c2ccccc2CCc2ccccc21 [Imipramine]
effect against the anticholinergic effects of Oxotremorine [2]: significantly reduced

CC(=O)Oc1ccccc1C(=O)O [acetylsalicylic acid]
Protection against writing (acetic acid writhing) (acetic acid writhing): 60%

CN(C)CCCN1c2ccccc2Sc2ccc(Cl)cc21 [Chlorpromazine]
protective effect against dexamphetamine produced mortality [3]: a protective effect was observed | stereotyped behaviour effects of dexamphetamine [4]: significantly decreased

O=C(O)C1N=C(c2ccccc2)c2cc(Cl)ccc2NC1=O (centres unmarked) [Clorazepate, Clorazepate dipotassium]
anticonvulsant effects (pentetylenetetrazole): Dose-dependent anticonvulsant and myorelaxant effects | myorelaxant effects (myorelaxant effects): Dose-dependent anticonvulsant and myorelaxant effects
